# From patent US8729273B2, “Compounds effective as xanthine oxidase inhibitors, method for preparing the same, and pharmaceutical composition containing the same” (LG Life Sciences Ltd., priority 2009, dated 2014)
# Key:
# [1] = molecular target: Xanthine oxidase originated from bovine milk (Bos taurus (Bovine), UniProt P80457); experiment: Xanthine oxidase inhibition activity (initial velocity of uric acid formation); format: biochemical; details: 3 min incubation with test compound, substrate xanthine
# Protocol: Xanthine oxidase originated from bovine milk was incubated for 3 min with test compounds, and the initial velocity of uric acid formation was determined by adding the substrate xanthine. The initial velocity of test compound at each concentration was converted to % inhibition rate on the basis of the initial velocity under the absence of the inhibitor, thereby the inhibitor concentration needed for 50% inhibition was calculated as IC50 values. According to the present invention, compounds which show IC50 values against xanthine oxidase from bovine milk in the level of nM were developed.
# [2] = tested on: plasma uric acid; experiment: In vivo xanthine oxidase assay: plasma uric acid-lowering activity in oxonic acid-induced high-uric acid model; design: species or system rat; details: male SD rats, potassium oxonate 300 mg/kg i.p., compound 10 mg/kg oral, plasma at 1 h after oral administration; normal group = 100% inhibition, control group = 0%
# Protocol: Uric Acid-Lowering Activity in Plasma and Liver (Oxonic Acid-Induced High-Uric Acid Model in Rat)
# In order to estimate the plasma uric acid-lowering ability of the compounds according to the present invention, experiments were carried out using oxonic acid-induced high-uric acid model.
# 300 mg/kg of potassium oxonate suspended in 0.8% carboxymethylcellulose solution was intraperitoneally administered to male SD rats of body weight 200 g (control group, compound administration group). 1 h after the oxonic acid administration, 10 mg/kg of test compounds dissolved in polyethyleneglycol 400:ethanol (2:1) solution were orally administered (compound administration group), and after the time period of 1 h blood was sampled. Plasma was separated from thus-obtained blood, and the uric acid concentration in the plasma was quantified utilizing LC-MS/MS. FIGS. 1 and 2 represent the results of plasma uric acid concentration and inhibition rate of plasma uric acid, respectively.
# Through the present experiment, excellent plasma uric acid-lowering activity of the compounds according to the present invention was verified.
# Chain of Xanthine oxidase originated from bovine milk (P80457 whole entry): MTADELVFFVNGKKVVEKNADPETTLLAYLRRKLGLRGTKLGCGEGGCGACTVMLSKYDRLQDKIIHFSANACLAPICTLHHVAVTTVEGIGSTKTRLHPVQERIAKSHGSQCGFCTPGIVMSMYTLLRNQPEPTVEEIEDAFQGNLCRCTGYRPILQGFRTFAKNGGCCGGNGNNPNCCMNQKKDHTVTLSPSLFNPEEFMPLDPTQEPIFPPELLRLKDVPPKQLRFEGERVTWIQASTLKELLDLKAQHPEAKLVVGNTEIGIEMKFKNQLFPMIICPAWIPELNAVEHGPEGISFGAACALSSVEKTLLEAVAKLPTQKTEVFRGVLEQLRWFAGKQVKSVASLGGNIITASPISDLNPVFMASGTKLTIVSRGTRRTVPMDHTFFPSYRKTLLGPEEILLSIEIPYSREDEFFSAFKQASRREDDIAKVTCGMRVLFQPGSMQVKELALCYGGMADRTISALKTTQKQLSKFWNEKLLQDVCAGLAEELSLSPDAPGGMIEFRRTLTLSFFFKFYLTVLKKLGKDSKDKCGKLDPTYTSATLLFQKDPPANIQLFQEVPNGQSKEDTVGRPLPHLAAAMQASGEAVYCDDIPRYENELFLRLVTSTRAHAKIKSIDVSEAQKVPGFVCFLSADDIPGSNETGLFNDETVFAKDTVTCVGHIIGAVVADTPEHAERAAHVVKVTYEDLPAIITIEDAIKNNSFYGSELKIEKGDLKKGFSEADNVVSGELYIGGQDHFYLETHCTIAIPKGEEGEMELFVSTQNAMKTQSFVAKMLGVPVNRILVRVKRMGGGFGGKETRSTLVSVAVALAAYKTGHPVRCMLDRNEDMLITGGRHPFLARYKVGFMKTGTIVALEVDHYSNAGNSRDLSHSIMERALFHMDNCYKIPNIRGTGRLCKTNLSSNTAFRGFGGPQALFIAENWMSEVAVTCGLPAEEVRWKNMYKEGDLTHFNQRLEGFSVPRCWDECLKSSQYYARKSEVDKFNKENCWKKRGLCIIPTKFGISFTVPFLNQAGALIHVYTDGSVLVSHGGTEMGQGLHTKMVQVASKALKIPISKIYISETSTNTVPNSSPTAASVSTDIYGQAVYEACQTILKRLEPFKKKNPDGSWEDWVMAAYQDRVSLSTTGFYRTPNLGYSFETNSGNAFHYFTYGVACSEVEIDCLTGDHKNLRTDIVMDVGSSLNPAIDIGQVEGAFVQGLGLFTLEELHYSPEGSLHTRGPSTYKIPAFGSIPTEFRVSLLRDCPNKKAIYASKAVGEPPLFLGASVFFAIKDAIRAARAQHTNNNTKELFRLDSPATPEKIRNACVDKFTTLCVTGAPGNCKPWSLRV
IC50 [1],SMILES,uric acid inhibition rate [2]
3.4 nM,"CC(C)n1cc(C#N)c2cc(-n3cc(C(=O)O)cn3)ccc21 [Example 1, 1-(3-cyano-1-isopropyl-indol-5-yl)pyrazole-4-carboxylic acid]",60%
2.8 nM,"N#Cc1cn(CC2CC2)c2ccc(-n3cc(C(=O)O)cn3)cc12 [Example 2, 1-[3-cyano-1-(cyclopropylmethyl)indol-5-yl]pyrazole-4-carboxylic acid]",–
6 nM,"N#Cc1cn(C2CC2)c2ccc(-n3cc(C(=O)O)cn3)cc12 [Example 3, 1-[3-cyano-1-cyclopropyl-indol-5-yl]pyrazole-4-carboxylic acid]",–
4.5 nM,"CC(C)Cn1cc(C#N)c2cc(-n3cc(C(=O)O)cn3)ccc21 [Example 4, 1-(3-cyano-1-isobutyl-indol-5-yl)pyrazole-4-carboxylic acid]",–
5 nM,"CC(C)(C)Cn1cc(C#N)c2cc(-n3cc(C(=O)O)cn3)ccc21 [Example 5, 1-[3-cyano-1-(2,2-dimethylpropyl)indol-5-yl]pyrazole-4-carboxylic acid]",–
3.8 nM,"COCCn1cc(C#N)c2cc(-n3cc(C(=O)O)cn3)ccc21 [Example 6, 1-[3-cyano-1-(2-methoxyethyl)indol-5-yl]pyrazole-4-carboxylic acid]",–
6.7 nM,"CCC(C)n1cc(C#N)c2cc(-n3cc(C(=O)O)cn3)ccc21 (centres unmarked) [Example 7, 1-(3-cyano-1-sec-butyl-indol-5-yl)-pyrazole-4-carboxylic acid]",–
6.9 nM,"N#Cc1cn(C2CCC2)c2ccc(-n3cc(C(=O)O)cn3)cc12 [Example 8, 1-[3-cyano-1-cyclobutyl-indol-5-yl]pyrazole-4-carboxylic acid]",–
4.6 nM,"N#Cc1cn(C2CCCC2)c2ccc(-n3cc(C(=O)O)cn3)cc12 [Example 9, 1-(3-cyano-1-cyclopentyl-indol-5-yl)-pyrazole-4-carboxylic acid]",–
5.2 nM,"CC(CF)n1cc(C#N)c2cc(-n3cc(C(=O)O)cn3)ccc21 (centres unmarked) [Example 10, 1-[3-cyano-1-(1-fluoropropan-2-yl)-indol-5-yl]-pyrazole-4-carboxylic acid]",–
5.4 nM,"N#Cc1cn(C2CCOC2)c2ccc(-n3cc(C(=O)O)cn3)cc12 (centres unmarked) [Example 11, 1-[3-cyano-1-(tetrahydrofuran-3-yl)-indol-5-yl]-pyrazole-4-carboxylic acid]",–
11.6 nM,"Cc1nn(-c2ccc3c(c2)c(C#N)cn3C(C)C)cc1C(=O)O [Example 12, 1-[3-cyano-1-isopropyl-indol-5-yl]-3-methyl-pyrazole-4-carboxylic acid]",–
4.8 nM,"Cc1nn(-c2ccc3c(c2)c(C#N)cn3CC2CC2)cc1C(=O)O [Example 13, 1-[3-cyano-1-(cyclopropylmethyl)indol-5-yl]-3-methyl-pyrazole-4-carboxylic acid]",–
12 nM,"COCCn1cc(C#N)c2cc(-n3cc(C(=O)O)c(C)n3)ccc21 [Example 14, 1-[3-cyano-1-(2-methoxyethyl)indol-5-yl]-3-methyl-pyrazole-4-carboxylic acid]",–
29200 nM,"CC(C)n1cc(C#N)c2cc(-n3cc(C(=O)O)c(C(F)(F)F)n3)ccc21 [Example 15, 1-[3-cyano-1-isopropyl-indol-5-yl]-3-(trifluoromethyl)pyrazole-4-carboxylic acid]",–
21300 nM,"N#Cc1cn(CC2CC2)c2ccc(-n3cc(C(=O)O)c(C(F)(F)F)n3)cc12 [Example 16, 1-[3-cyano-1-(cyclopropylmethyl)indol-5-yl]-3-(trifluoromethyl)pyrazole-4-carboxylic acid]",–

IC50 [1],SMILES,uric acid inhibition rate [2]
4.6 nM,"CC(C)n1cc([N+](=O)[O-])c2cc(-n3cc(C(=O)O)cn3)ccc21 [Example 17, 1-(1-isopropyl-3-nitro-indol-5-yl)pyrazole-4-carboxylic acid]",–
13 nM,"CC(C)n1cc(C#N)c2cc(-n3cnc(C(=O)O)n3)ccc21 [Example 18, 1-(3-cyano-1-isopropyl-indol-5-yl)-1,2,4-triazole-3-carboxylic acid]",–
24 nM,"CC(C)n1cc(C#N)c2cc(-n3cnc(C(=O)O)c3)ccc21 [Example 19, 1-(3-cyano-1-isopropyl-indol-5-yl)imidazole-4-carboxylic acid]",–
4.7 nM,"CC(C)n1cc(C#N)c2cc(-c3ccc(C(=O)O)s3)ccc21 [Example 20, 5-(3-cyano-1-isopropyl-indol-5-yl)-thiophene-2-carboxylic acid]",–
6.2 nM,"CC(C)n1cc(C#N)c2cc(-c3cc(C(=O)O)ccn3)ccc21 [Example 21, 2-(3-cyano-1-isopropyl-indol-5-yl)isonicotinic acid]",–
2.1 nM,"N#Cc1cn(CC2CC2)c2ccc(-c3cc(C(=O)O)ccn3)cc12 [Example 22, 2-[3-cyano-1-(cyclopropylmethyl)-indol-5-yl]isonicotinic acid]",–
10 nM,"N#Cc1cn(C2CCOC2)c2ccc(-c3cc(C(=O)O)ccn3)cc12 (centres unmarked) [Example 23, 2-[3-cyano-1-(tetrahydrofuran-3-yl)-indol-5-yl]isonicotinic acid]",–
6.2 nM,"CC(CF)n1cc(C#N)c2cc(-c3cc(C(=O)O)ccn3)ccc21 (centres unmarked) [Example 24, 2-[3-cyano-1-(1-fluoropropan-2-yl)-indol-5-yl]isonicotinic acid]",–
8.5 nM,"COCCn1cc(C#N)c2cc(-c3cc(C(=O)O)ccn3)ccc21 [Example 25, 2-[3-cyano-1-(2-methoxyethyl)-indol-5-yl]isonicotinic acid]",–
3940 nM,"Cc1cc(C(=O)O)cc(-c2ccc3c(c2)c(C#N)cn3C(C)C)n1 [Example 26, 2-(3-cyano-1-isopropyl-indol-5-yl)-6-methylisonicotinic acid]",–
11 nM,"CC(C)n1cc([N+](=O)[O-])c2cc(-c3cc(C(=O)O)ccn3)ccc21 [Example 27, 2-(1-isopropyl-3-nitro-indol-5-yl) isonicotinic acid]",–
24 nM,"N#Cc1cc(-n2cc(C(=O)O)cn2)cc2cc(-c3ccccc3)[nH]c12 [Example 28, 1-(7-cyano-2-phenyl-1H-indol-5-yl)-pyrazole-4-carboxylic acid]",–
5 nM,"CC(C)c1cc2cc(-n3cc(C(=O)O)cn3)cc(C#N)c2[nH]1 [Example 29, 1-(7-cyano-2-isopropyl-1H-indol-5-yl)-pyrazole-4-carboxylic acid]",–
17 nM,"COCc1cc2cc(-n3cc(C(=O)O)cn3)cc(C#N)c2[nH]1 [Example 30, 1-(7-cyano-2-methoxymethyl-1H-indol-5-yl)-pyrazole-4-carboxylic acid]",–
40 nM,"N#Cc1cc(-n2cc(C(=O)O)cn2)cc2cc[nH]c12 [Example 31, 1-(7-cyano-1H-indol-5-yl)-pyrazole-4-carboxylic acid]",–
